In patent US9353092B2, “Synthesis and use of croconaine compounds” (University of Notre Dame du Lac, priority 2013, dated 2016):
Each block holds one molecule with its values, some of them ahead of it.

Key:
Type in all cases: physicochemical
[1] = Laser photothermal heating of a solution (temperature change by thermocouple); conditions: for ΔT (temperature change during laser irradiation): 780 nm
Excerpt: This example describes a method of using compound 1 to increase the temperature of a solution. […] An Omega hypodermic thermocouple (HYPO-33-1-T-G-60-SMPW-M) was placed in the solution and the temperature measured using the associated USB converter. The Ti:Sapphire laser beam was aligned to pass through the solution (above the stirrer and avoiding close contact with the thermocouple) in an identical manner in every experiment. The laser wavelength was set at 780 and the power controlled to be 250 mW during all of the experiments, with a beam diameter of 0.3 cm.
[…] An Omega hypodermic thermocouple (HYPO-33-1-T-G-60-SMPW-M) was placed in the solution and the temperature measured using the associated USB converter. The Ti:Sapphire laser beam was aligned to pass through the solution (above the stirrer and avoiding close contact with the thermocouple) in an identical manner in every experiment. The laser wavelength was set at 780 or 808 nm and the power controlled to be 250 mW during all of the experiments, with a beam diameter of 0.3 cm.

[2] = Absorbance of solutions in 4:1 MeOH/H2O; conditions: 780 nm
[3] = Photobleaching / photostability under near-infrared laser irradiation; conditions: 4:1 MeOH/H2O; for Heating effect during extended near-infrared irradiation: 780 nm, 250 mW, 15 minute, 1.67 μg/mL croconaine 1, 2.00 μg/mL ICG, FIG. 13; for Change in absorbance after laser irradiation: FIGS. 14 and 15
Description: These experiments were conducted in 4:1 MeOH/H2O, with 1.67 μg/mL of croconaine 1 and 2.00 μg/mL of ICG respectively. This difference in compound photobleaching was confirmed with studies that looked at changes in the compound absorption signal.

[4] = 810 nm, 900 s, 260 mW, 0.005 mg/mL

A (absorbance value) ([2]; 0.10 μg/mL): 0.04
A (absorbance value) ([2]; 0.25 μg/mL): 0.11
A (absorbance value) ([2]; 0.50 μg/mL): 0.22
A (absorbance value) ([2]; 1.00 μg/mL): 0.46
A (absorbance value) ([2]; 1.67 μg/mL): 0.73
A (absorbance value) ([2]; 2.50 μg/mL): 1.13
A (absorbance value) ([2]; 5.00 μg/mL): 2.24
A (absorbance value) ([2]; 50.0 μg/mL, estimated): ~22.4 (est)
Concentration dependence of absorbance ([2]; FIGS. 8 and 9): obeys the Beer-Lambert Law
Heating effect during extended near-infrared irradiation [3]: no heating effect loss
Change in absorbance after laser irradiation [3, 4]: no change
Compound: C#CCOCCN(CC)c1ccc(C2=C([O-])/C(=C3C=C/C(=[N+](/CC)CCOCC#C)S\3)C(=O)C2=O)s1 [Compound 1]
ΔT (temperature change during laser irradiation) ([1]; 0.10 μg/mL, 4:1 MeOH/H2O, 250 mW): 0.1 °C
ΔT (temperature change during laser irradiation) ([1]; 0.25 μg/mL, 4:1 MeOH/H2O, 250 mW): 2.0 °C
ΔT (temperature change during laser irradiation) ([1]; 0.50 μg/mL, 4:1 MeOH/H2O, 250 mW): 3.4 °C
ΔT (temperature change during laser irradiation) ([1]; 1.00 μg/mL, 4:1 MeOH/H2O, 250 mW): 7.2 °C
ΔT (temperature change during laser irradiation) ([1]; 1.67 μg/mL, 4:1 MeOH/H2O, 250 mW): 9.8 °C
ΔT (temperature change during laser irradiation) ([1]; 2.50 μg/mL, 4:1 MeOH/H2O, 250 mW): 10.4 °C
ΔT (temperature change during laser irradiation) ([1]; 5.00 μg/mL, 4:1 MeOH/H2O, 250 mW): 11.0 °C
ΔT (temperature change during laser irradiation) ([1]; 50.0 μg/mL, 4:1 MeOH/H2O, 250 mW): 11.3 °C
Heating on laser irradiation at different wavelengths ([1]; 4:1 MeOH/H2O, 0.05 mg/mL for laser experiments, FIG. 12): proportional to the amount of light absorbed
Dependence of heating on absorbance ([1]; 780 nm laser light, Table 1, FIGS. 10 and 11): linear with absorbance from about A=0 until about A=1

Compound: C#CCOCCN(Cc1ccccc1)c1ccc(C2=C([O-])/C(=C3C=C/C(=[N+](\CCOCC#C)Cc4ccccc4)S\3)C(=O)C2=O)s1 [Compound 2]
Ability to increase the temperature of a solution ([1]; 2.0 or 50.0 μg/mL, 4:1 MeOH/H2O, 780 or 808 nm, 250 mW): same ability as compound 1

Decrease in the absorbance after laser irradiation ([3]; 810 nm, 900 s, 260 mW, 0.005 mg/mL, FIG. 15): ~50%
Change in absorbance after laser irradiation [3, 4]: drop
Compound: CC1(C)C(/C=C/C=C/C=C/C=C2\N(CCCCS(=O)(=O)O)c3ccc4ccccc4c3C2(C)C)=[N+](CCCCS(=O)(=O)[O-])c2ccc3ccccc3c21 [ICG, indocyanine green]
Heating effect during extended near-infrared irradiation [3]: loss of heating effect due to photobleaching
